“Also recorded” adds a separate entry of the source. Counter-ions that a name gives are not always drawn. Like-named read-outs stand apart in the source and are kept apart here.
How the values were obtained:
[1] = Cytotoxicity against L6 cells (resazurin, 72 h); assay type: cell-based, rat
Protocol: Rat skeletal myoblasts (L6 cell lines) were seeded in 96-well plates (4 × 10^4 cells/well) in 100 μl RPMI 1640 medium supplemented with 10% fetal bovine serum (FBS) and 2 mM L-glutamine. After 24 h incubation the medium was replaced with 100 μl of fresh medium with or without a serial dilution of compound concentrations (eleven three-fold dilution steps). After 72 h of compound exposure, fluorescent dye resazurin (10 μl, 12.5 mg resazurin dissolved in 100 ml water) was added for 2 h and the readings performed at Spectramax Gemini XS microplate fluorometer (Molecular Devices Cooperation, USA), with excitation wavelength of 536 nm and an emission wavelength of 588 nm. Growth was expressed as percentage of the values of solvent-treated controls. The graphics program Softmax Pro (Molecular Devices) was used to construct dose–response curves and calculate EC50 values. Podophyllotoxin (a microtubule destabilizing agent) was used as positive control.

[2] = tested on: Trypanosoma cruzi epimastigotes (STIB 980 strain); test: Activity on T. cruzi epimastigotes (resazurin, 72 h); assay type: cell-based; settings: STIB980, STIB 980 strain, 72 h; for EC50: n = 3, read-out: Epimastigotes (mean ± SD) EC50; for EC90: n = 3, read-out: Epimastigotes (mean ± SD) EC90
Protocol: (§1) L6 cells derived from rat skeletal myoblast (ATCC CRL-1458) were used as host cells for T. cruzi using trypomastigotes of Tulahuen C2C4 strain (DTU VI) expressing the β-galactosidase gene (LacZ) ([Buckner et al., 1996]). The cultures were sustained in RPMI-1640 supplemented with 10% inactivated fetal bovine serum (FBS) and […] at 5% CO2 and 37°C. Epimastigote T. cruzi (STIB 980 strain, DTU TcI) were cultivated at 28°C in liver infusion tryptose (LIT) medium supplemented with hemin (2 μg/ml) and 10% FBS and were used in log phase of growth. Bloodstream trypomastigotes (Y strain, DTU II) were isolated from Swiss Webster mice infected at the peak of parasitemia (≥ 2.5 × 10^6/ml), as reported ([Meirelles et al., 1986]).
Epimastigotes (10^7 parasites/ml) were incubated for 72 h at 28°C with serially diluted compound concentrations (eleven 1:3 dilutions) in supplemented LIT medium. Parasite viability and motility were evaluated by direct observation by light microscopy and fluorometric assays performed with resazurin (12.5 mg resazurin dissolved in 100 ml distilled water). After 2–4 h of incubation with resazurin solution, plates were read in Spectramax Gemini XS microplate fluorometer (Molecular Devices Cooperation, USA) using wavelengths of 536 nm (excitation) and 588 nm (emission) ([Räz et al., 1997]). Growth was expressed as percentage of the values of solvent-treated controls. The graphics program Softmax Pro (Molecular Devices) was used to construct dose–response curves and calculate EC50 (half maximal inhibitory concentration) values. Bz was used as reference drug.

[3] = tested on: Trypanosoma cruzi intracellular amastigotes (Tulahuen strain in rat L6 myoblasts); test: Activity on T. cruzi intracellular amastigotes in L6 cells (LacZ/CPRG, 96 h); assay type: cell-based; settings: for EC50 / EC90: Tulahuen strain in rat L6 myoblasts, 96 h, n = 3; for EC50: read-out: Amastigotes (mean ± SD) EC50; for EC90: read-out: Amastigotes (mean ± SD) EC90
Protocol: as §1
Rat skeletal myoblasts (L6 cell lines) were seeded in 96-well plates (10^4 cells/well) in 100 μl RPMI 1640 medium supplemented with 10% fetal bovine serum (FBS) and 2 mM L-glutamine. The medium was removed after 24 h incubation and replaced by 100 μl of fresh medium containing 10^5 LacZ trypomastigotes (Tulahuen DTU VI). After 48 h, the medium was again removed and replaced with or without a serial of compound concentrations (eleven three-fold dilution steps). After 96 h of compound exposure, CPRG/Nonidet (50 μl) substrate was added and the reading performed after 2–6 h at 540 nm in Versamax microplate reader (Molecular Devices Cooperation, USA). Growth was expressed as percentage of the values of solvent-treated controls. The graphics program Softmax Pro (Molecular Devices) was used to construct dose–response curves and calculate EC50 values. Bz was used as reference drug.

[4] = Toxicity in female mice after p.o. administration; assay type: in vivo; settings: up to 200 mpk (data not shown)
T. cruzi (Y strain) = test: Mouse model of acute T. cruzi infection: parasitemia and mortality; assay type: in vivo, Trypanosoma cruzi
Protocol: Male Swiss Webster mice (18–23 g) were obtained from the Instituto de Ciência e Tecnologia em Biomodelos (ICTB/Fiocruz) (Rio de Janeiro, Rio de Janeiro, Brazil). Five mice were housed per cage, kept in a conventional room at 20–24°C under 12 h/12 h light/dark cycle. Sterilized water and chow were provided ad libitum. The animals were acclimated for 7 days before being used in the different assays. All procedures were done following Biosafety Guidelines in compliance with the Fiocruz and all animal procedure approved by the Committee of Ethics for the Use of Animals (CEUA L-38/17).
Male mice (n = 5 per group) were infected i.p. with 10^4 bloodstream trypomastigotes of T. cruzi (Y strain). Only mice with positive parasitemia at day 5 post infection (dpi) were included in the studies. […] Uninfected and T. cruzi-infected mice treated only with vehicle (aqueous solution of 0.5% carboxymethylcellulose) were age-matched and housed under identical conditions and used as controls ([Simões-Silva et al., 2017]). All compound formulations were freshly prepared before every administration.
All animals were individually checked for circulating blood parasitemia by counting the number of parasites in 5 µl of blood taken from the tail vein and investigated under the microscope ([Brener, 1962]). Parasitemia was checked till 30 dpi, while mortality was checked daily up to 30 days after the administration of the last dose. Mortality was given as percentage of cumulative mortality (CM) ([Simões-Silva et al., 2017]).

[5] = tested on: T. cruzi epimastigote cultures; parameters: method as in Chataing et al., 1998; settings: after four days of incubation; ref Chataing et al., 1998; read-out: Concentration inhibiting growth of epimastigote cultures to 50%; cited from earlier work
[6] = EC50 on mammalian L6 cells versus EC50 on intracellular amastigotes
[7] = Trypanosoma cruzi, TULAHUEN, L6, 96 h
[8] = L6 rat skeletal myoblast cells, rat L6 myoblasts, 72 h, n = 3, read-out: L6 cells (mean ± SD) EC50
[9] = rat L6 myoblasts, 72 h, n = 3, read-out: L6 cells (mean ± SD) EC50
[10] = TH alone, all tested doses (up to 5 mpk) p.o., 10 days, mice

| SMILES | EC50 at 72 h ([1]; rat) [µM] | EC50 [2] [µM] | EC90 [2] [µM] | SI (Selectivity Index) [3, 6] | EC50 [3, 7] [µM] | EC90 ([3]; Trypanosoma cruzi) [µM] | EC50 [3] [µM] | EC50 at 72 h [1, 8] [µM] | SI (Selectivity Index) [3] | EC50 at 72 h [1, 9] [µM] | Signs of toxicity [4] | Decrease of the parasitemia peak (T. cruzi (Y strain); Posa 1.25 mpk (suboptimal dose) p.o., 10 days (5-14 dpi), mice) | Animal survival (T. cruzi (Y strain); Posa 1.25 mpk p.o., 10 days (5-14 dpi)) [%] | Survival of mice (T. cruzi (Y strain); Posa 10 mpk p.o., 10 days (5-14 dpi)) [%] | Effect on parasitemia on the peak (8 dpi) (T. cruzi (Y strain); Posa 10 mpk p.o., 10 days (5-14 dpi), mice) | EC50 [5] [µM] | Maximum reduction in blood parasitemia on the peak (T. cruzi (Y strain); [10]) [%] | Protection against mortality induced by the infection (T. cruzi (Y strain); [10]) | Antiparasitic activity in vivo (T. cruzi (Y strain); TH alone, doses 0.5 to 5 mg/kg, acute mouse model, listed as TH) |
| --- | --- | --- | --- | --- | --- | --- | --- | --- | --- | --- | --- | --- | --- | --- | --- | --- | --- | --- | --- |
| CCCCCCCCc1ccc(CCC(N)(CO)CO)cc1 [FTY720] | 0.39 ± 0.1 | 7.55 ± 0.4 | 11.6 ± 0.3 | 0.5 | ≤ 1 | 1.84 ± 1.3 | 0.81 ± 0.5 |  |  |  |  |  |  |  |  |  |  |  |  |
| S=C(S)OC1CC2CC1C1CCCC21 (centres unmarked) [D609 (potassium salt), D609] |  | 154 ± 32 | > 375 |  | 99.4 ± 17.6 | 198 ± 32 |  | 247 ± 20 | 2.5 |  |  |  |  |  |  |  |  |  |  |
| CN(C)CCC=C1c2ccccc2CCc2ccccc21 [Amitriptyline (hydrochloride), Amitriptyline] |  | 59.9 ± 5.4 | 96.8 ± 3.3 | 1.4 | 12.2 ± 3.6 | 20.9 ± 3 |  |  |  | 17.2 ± 1.2 |  |  |  |  |  |  |  |  |  |
| O=C(/C=C/c1ccc(/C=C/C(=O)Nc2ccc(C3=NCCN3)cc2)cc1)Nc1ccc(C2=NCCN2)cc1 [GW4869 (hydrochloride hydrate), GW4869] |  | > 173 | > 173 | >1.7 | 106 ± 44 | > 173 |  |  |  | > 173 |  |  |  |  |  |  |  |  |  |
| CC(C)(Oc1ccc(CCNC(=O)c2ccc(Cl)cc2)cc1)C(=O)O [Bezafibrate] |  | > 276 | > 276 |  | 132 ± 38.6 | 226 ± 65 |  | > 276 | >2.1 |  |  |  |  |  |  |  |  |  |  |
| Cc1cc2ncc(NC(=O)Nc3ccc(F)cc3F)c(-c3ccccc3Cl)c2cc1C [TMP-153] | 0.12 ± 0.03 | 106 ± 27 | > 228 | 1.4 |  | 3.9 ± 2.1 |  |  |  |  |  |  |  |  |  |  |  |  |  |
| CC[C@@H]([C@H](C)O)n1ncn(-c2ccc(N3CCN(c4ccc(OC[C@@H]5CO[C@@](Cn6cncn6)(c6ccc(F)cc6F)C5)cc4)CC3)cc2)c1=O [Posaconazole] | > 1.42 | > 14.2 | > 14.2 | >700 | 0.002 ± 0.001 | 0.016 ± 0.005 |  |  |  |  | did not show any signs of toxicity | about 80% | 20 | 40 | suppressed parasitemia on the peak |  |  |  |  |
| C[C@H]1CC[C@]2(NC1)O[C@H]1C[C@H]3[C@@H]4CC[C@H]5C[C@@H](O)CC[C@]5(C)[C@H]4CC[C@]3(C)[C@H]1[C@@H]2C [Tomatidine (hydrochloride), Tomatidine] |  | 192 ± 8.1 | > 221 | 115 | ≤ 1 | 1.8 ± 0.2 | 0.78 ± 0.2 |  |  | 89.5 ± 26.7 | did not show any signs of toxicity |  |  |  |  | 5.7 | ≤ 28 | all animals died by 20 dpi | lack of antiparasitic activity; also recorded: did not present antiparasitic activity |

Source: paper PMC7970121, “Combination With Tomatidine Improves the Potency of Posaconazole Against Trypanosoma cruzi” (Frontiers in Cellular and Infection Microbiology, 2021)
